We go through four substances from PMC3791449, “Mechanism of amyloid β−protein dimerization determined using single−molecule AFM force spectroscopy” (Scientific Reports, 2013).

The subject of one data set is Aβ peptides. Particulars: cited from earlier work. The source says:
Aberrant folding (misfolding) and aggregation of amyloid proteins are pathological hallmarks of a large class of neurodegenerative diseases, including Alzheimer's disease (AD) (reviewed in[1][2]). In AD, amyloid precursor proteins are sequentially cleaved by β−secretase and γ−secretase, producing the amyloid β−protein (Aβ)[3]. Aβ peptides contain several alloforms with varying sequences of amino acids, dependent on the cleavage sites of γ−secretase. […] Additional C−terminal modi ... || It is important to compare our data with the aggregation studies of similar Aβ peptide samples.

For the next data set, the system named is misfolded Aβ dimers. In words: Single-molecule AFM force spectroscopy: rupture force of Aβ dimers. The data set is classed as binding, human. The procedure:
The cysteinyl−peptides were covalently immobilized on the tip and the surface via flexible tethers terminated with maleimide groups. […] Peptide aggregation was minimized by using a very low peptide concentration (20 nM) during the coupling reaction with the functionalized mica surface and the tips. Probing was performed by multiple approach−retraction cycles over various spots of the mica surface.
Figures 1−b1 and 1−b2 show typical force curves for non−specific and specific interactions, respectively. Specific rupture events were characterized by the appearance of the event indicated with an arrow in Fig. 1−b2. The rupture peak appears at the distance defined by the extension of the flexible linkers (polyethylene glycol, PEG and maleimide silatrane, MAS) and the segments of the peptides not involved in dimer formation (see Supplementary Methods for specifics). The force−distance curves, as shown in Fig. 1−b2, were analyzed with worm−like chain (WLC) fitting to extract parameters including the rupture force and the contour length. […] The measurements for the [VPV]Aβ40 mutant performed at similar conditions (ionic strength, loading rate, etc.) are shown in Fig. 1d. […] The rupture forces increase with increasing apparent loading rates (Supplementary Fig. S1).
All cysteinyl−Aβ peptides were synthesized using 9−fluorenylmethoxycarbonyl (FMOC) chemistry and purified by reverse phase high performance liquid chromatography (RP−HPLC). The identity and purity (usually > 97%) of the peptides were confirmed by amino acid analysis followed by mass spectrometry and RP−HPLC. Functionalization of AFM tips and mica substrates were prepared according to previously published procedures. Briefly, 20 nM Aβ monomers were immobilized on mica functionalized with aminopropyl silatrane (APS) via PEG 3400 tethers and on AFM tips through maleimide silatrane (MAS). For DFS study, the tip retraction speeds ranged from 100 nm/s to 4000 nm/s. The dwell time was set at 0.3 s when retraction speed reached 1000 nm/s and above. Force curves with rupture event were subject to WLC analysis, as shown below. [drawing 1] Rupture force distributions were fitted with a probability density function: [drawing 2] Dynamic force spectra were fitted with Bell−Evans model[21]: [drawing 3] The energy profiles were reconstructed according to previous papers, using the equation below. [drawing 4] Positions of interacting segments of Aβ monomers within dimers were estimated by subtracting from the measured contour lengths the lengths of all linkers and the distance between N−termini of monomers (see Fig. 1a). The contour length of PEG was estimated with the following equation[28]: [drawing 5] Where Lc(F) is the contour length, Ns is the average number of monomers, Lplanar is the length of monomers with planar conformation, Lhelical is the length of monomers with helical conformation, ΔG(F) is the free energy difference at zero appling force. The Ns is 77 ± 10 for 3400 Da PEG. The Lplanar and Lhelical are 3.58 Å and 2.8 Å, respectively. The ΔG(F) is fixed at 3 kBT. The contour length of PEG was thus estimated to be 22.0 ± 0.9 nm. All error bars represent SEM. Detailed methods can be found in Supplementary Information.
A 50 mM 1−(3−aminopropyl) silatrane (APS) stock solution was prepared by dissolving the APS powder in deionized (DI) water. The 1.67 mM stock solution of maleimide−polyethylene glycol−succinimidyl valerate (MAL−PEG−SVA; 3.4 kDa Laysan Bio Inc, Arab, AL) was prepared in DMSO (Sigma−Aldrich Inc.) and stored at −20°C. The 10 mM Tris (2−carboxyethyl) phosphine (TCEP) hydrochloride (Hampton Research Inc.) and the 2.94 mM solution of maleimide silatrane (MAS) were prepared in DI water and stored at −20°C. A 10 mM stock solution of β−mercaptoethanol was prepared in 10 mM sodium phosphate, pH 7.4 (“phosphate buffer”) and kept at 4°C. Unless otherwise specified, other reagents used in the experiments were of analytical grade from Sigma−Aldrich. […]

In another data set the test system is Aβ42 dimers. Particulars: cited from earlier work. The source says: We have developed a single−molecule atomic force microscopy (SMFS) approach enabling us to probe and characterize the interactions of the peptides and proteins in transient misfolded conformations. In this approach, the protein is end−immobilized on the AFM tip and substrate, allowing us to measure the interprotein interactions at the single−molecule level. The dynamics force spectroscopy (DFS) approach has been quite informative with respect to the lifetimes of transiently formed misfolded dimers (reviewed in[16]).

The conditions of data set [1]: cited from earlier work. An excerpt: Aberrant folding (misfolding) and aggregation of amyloid proteins are pathological hallmarks of a large class of neurodegenerative diseases, including Alzheimer's disease (AD) (reviewed in[1][2]). In AD, amyloid precursor proteins are sequentially cleaved by β−secretase and γ−secretase, producing the amyloid β−protein (Aβ)[3]. Aβ peptides contain several alloforms with varying sequences of amino acids, dependent on the cleavage sites of γ−secretase.

[2] abbreviates: loading rates of 5000−7000 pN/s, ± SEM, total data 170 (Aβ40), 280 ([VPV]Aβ40).
[3] abbreviates: Supplementary Figs. S3b-S5b, similar analysis, loading rate not given.

Like-named read-outs stand apart in the source and are kept apart here.

With “Aβ40: alloform of human amyloid β−protein; cysteinyl−Aβ peptide, Cys residue placed at the N−terminus”, the aggregation properties entry in the data set on Aβ peptides is given as “similar”. Besides, in the data set on Aβ peptides, the oligomerization pattern entry is “rapid equilibrium with coexisting monomers, dimers, trimers, and tetramers”. In addition, the “most probable rupture force” value in the data set on misfolded Aβ dimers (loading rate 6215 pN/s, probability density function fit) is on record as 57.0 pN; in the data set with misfolded Aβ dimers (setting [2]) it was 63.4 ± 3.2 pN; in the data set on misfolded Aβ dimers (loading rates of 5000−7000 pN/s, ± SEM, total data 170 (Aβ40), 280 ([VPV]Aβ40), listed as Αβ40), 63.4 pN. Also, the “rupture force alignment in the force versus contour length plot” value with misfolded Aβ dimers (scatter plot Fig. 3c, horizontal line, loading rates of 5000−7000 pN/s) is reported as ~ 60 pN.
Consider “Aβ42: alloform of human amyloid β−protein with two additional C−terminal residues; cysteinyl−peptide”, for which the oligomerization pattern result with Aβ peptides is “prefers to form a pentamer/hexamer structure (paranucleus)”. In addition, the “segments involved in dimer formation” value in the data set on Aβ42 dimers (in the absence of Cu^2+ cations) is “formed dimers via the C−terminal segments”; in the data set with Aβ42 dimers (with Cu^2+ cations), “dimer formation involves the N−terminal segments”. Also, in the data set on misfolded Aβ dimers (setting [3]), the “most probable rupture force” value is listed as 66.2 ± 0.8 pN. Besides, the “toxicity compared with other alloforms” value in data set [1] is recorded as “appears to be the most toxic”.
As to “[VPV]Aβ40: Aβ40 mutant with VPV substitutions (Gly33Val−Val36Pro−Gly38Val); cysteinyl−peptide”, the “most probable rupture force, increase vs Αβ40 dimers” value with misfolded Aβ dimers ([VPV]Αβ40 vs Αβ40 (79.3 vs 63.4 pN), loading rates of 5000−7000 pN/s) is reported as 25%. The “most probable rupture force” value in the data set with misfolded Aβ dimers (loading rate 6068 pN/s, probability density function fit) is 83.6 pN; in the data set with misfolded Aβ dimers (setting [2]), 79.3 ± 1.5 pN; with misfolded Aβ dimers (loading rates of 5000−7000 pN/s, ± SEM, total data 170 (Aβ40), 280 ([VPV]Aβ40), listed as [VPV]Αβ40), 79.3 pN. For the same substance, the “toxicity of oligomers / aggregates” value in data set [1] is on record as “elevated neurotoxicity”.
With “[VPV]Aβ42: Aβ42 with VPV substitutions (Gly33Val−Val36Pro−Gly38Val); cysteinyl−peptide”, the “most probable rupture force” value with misfolded Aβ dimers (setting [3]) was found to be 67.9 ± 1.0 pN.
